US9156796B2, “Benzoimidazole-carboxylic acid amide derivatives as APJ receptor modulators” (SANOFI, priority 2013, dated 2015)

Molecular target: T1, human apelin receptor (Homo sapiens, UniProt P35414)
T1 construct: expressed in transfected cells
T1 sequence (P35414 1-380): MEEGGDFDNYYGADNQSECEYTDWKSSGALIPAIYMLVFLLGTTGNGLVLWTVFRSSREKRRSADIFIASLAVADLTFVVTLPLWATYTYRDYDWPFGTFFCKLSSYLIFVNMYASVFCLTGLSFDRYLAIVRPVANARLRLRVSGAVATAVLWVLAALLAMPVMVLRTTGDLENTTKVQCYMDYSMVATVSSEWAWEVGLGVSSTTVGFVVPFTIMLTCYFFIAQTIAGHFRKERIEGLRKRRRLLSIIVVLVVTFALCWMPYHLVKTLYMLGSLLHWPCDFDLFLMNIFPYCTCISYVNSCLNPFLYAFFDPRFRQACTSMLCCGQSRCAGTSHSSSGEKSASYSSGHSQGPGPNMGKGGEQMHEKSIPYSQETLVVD
Test: Determination of agonism on the human apelin receptor by a calcium fluorescence assay (FLIPR)
Assay type: cell-based
Conditions: HEK293 cells stably transfected with human apelin receptor and Giaq protein, Fluo-4 calcium fluorescence, read-out: EC50 (APJ agonism)
Procedure, shortened: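 HEK293 cells stably co-expressing human apelin receptor and promiscuous Giaq, loaded 1 h at 37 °C with Fluo-4 (4 μM) in probenecid-containing Hepes buffer, pH 7.4. Compounds, at least 7 concentrations in triplicate, added in FLIPR Tetra; peak calcium fluorescence normalized to 1 μM apelin-13 as 100% to derive EC50.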

Row | SMILES | EC50 [nM]
1 | CCC(CC)n1c(Cc2cccs2)nc2cc(C(=O)N[C@@H](CC(C)C)C(=O)NC3CCC3)ccc21 [Example 215, 1-(1-Ethyl-propyl)-2-thiophen-2-ylmethyl-1H-benzoimidazole-5-carboxylic acid ((S)-1-cyclobutylcarbamoyl-3-methyl-butyl)-amide] | 1450
2 | CC(C)C[C@H](NC(=O)c1ccc2c(c1)nc(Cc1cccs1)n2C1CCCCC1C)C(=O)N(C)C (stereo partly drawn) [Example 216, 1-(2-Methyl-cyclohexyl)-2-thiophen-2-ylmethyl-1H-benzoimidazole-5-carboxylic acid ((S)-1-dimethyl-carbamoyl-3-methyl-butyl)-amide] | 1730
3 | CCC(CC)n1c(Cc2cccs2)nc2cc(C(=O)N[C@@H](CC(C)C)C(=O)N3CCSCC3)ccc21 [Example 217, 1-(1-Ethyl-propyl)-2-thiophen-2-ylmethyl-1H-benzoimidazole-5-carboxylic acid [(S)-3-methyl-1-(thiomorpholine-4-carbonyl)-butyl]-amide] | 2210
4 | CCC(C)NC(=O)[C@H](CC(C)C)NC(=O)c1ccc2c(c1)nc(Cc1cccs1)n2C(CC)CC (stereo partly drawn) [Example 218, 1-(1-Ethyl-propyl)-2-thiophen-2-ylmethyl-1H-benzoimidazole-5-carboxylic acid ((S)-1-sec-butylcarbamoyl-3-methyl-butyl)-amide] | 2010
5 | CCC(CC)n1c(Cc2cccs2)nc2cc(C(=O)N[C@@H](CC(C)C)C(=O)NCCC3CCCN3C)ccc21 (stereo partly drawn) [Example 219, 1-(1-Ethyl-propyl)-2-thiophen-2-ylmethyl-1H-benzoimidazole-5-carboxylic acid {(S)-3-methyl-1-[2-(1-methyl-pyrrolidin-2-yl)-ethylcarbamoyl]-butyl}-amide] | 274
6 | CCC(CC)n1c(Cc2cccs2)nc2cc(C(=O)N[C@@H](CC(C)C)C(=O)NCc3ccccc3)ccc21 [Example 220, 1-(1-Ethyl-propyl)-2-thiophen-2-ylmethyl-1H-benzoimidazole-5-carboxylic acid ((S)-1-benzylcarbamoyl-3-methyl-butyl)-amide] | 2860
7 | CCC(CC)n1c(Cc2cccs2)nc2cc(C(=O)N[C@@H](CC(C)C)C(=O)NCc3ccco3)ccc21 [Example 221, 1-(1-Ethyl-propyl)-2-thiophen-2-ylmethyl-1H-benzoimidazole-5-carboxylic acid {(S)-1-[(furan-2-ylmethyl)-carbamoyl]-3-methyl-butyl}-amide] | 1830
8 | CCC(CC)n1c(Cc2cccs2)nc2cc(C(=O)N[C@@H](CC(C)C)C(=O)NCc3cccs3)ccc21 [Example 222, 1-(1-Ethyl-propyl)-2-thiophen-2-ylmethyl-1H-benzoimidazole-5-carboxylic acid {(S)-3-methyl-1-[(thiophen-2-ylmethyl)-carbamoyl]-butyl}-amide] | 3990
9 | CCC(CC)n1c(Cc2cccs2)nc2cc(C(=O)N[C@@H](CC(C)C)C(=O)NCCc3cccs3)ccc21 [Example 223, 1-(1-Ethyl-propyl)-2-thiophen-2-ylmethyl-1H-benzoimidazole-5-carboxylic acid [(S)-3-methyl-1-(2-thiophen-2-yl-ethylcarbamoyl)-butyl]-amide] | 6960
10 | CCC(CC)n1c(Cc2cccs2)nc2cc(C(=O)N[C@@H](CC(C)C)C(=O)NCCCN(C)C)ccc21 [Example 224, 1-(1-Ethyl-propyl)-2-thiophen-2-ylmethyl-1H-benzoimidazole-5-carboxylic acid [(S)-1-(3-dimethylamino-propylcarbamoyl)-3-methyl-butyl]-amide] | 300
11 | CCC(CC)n1c(Cc2cccs2)nc2cc(C(=O)N[C@@H](CC(C)C)C(=O)N3CCN(C)CC3)ccc21 [Example 225, 1-(1-Ethyl-propyl)-2-thiophen-2-ylmethyl-1H-benzoimidazole-5-carboxylic acid [(S)-3-methyl-1-(4-methyl-piperazine-1-carbonyl)-butyl]-amide] | 775
12 | CCC(CC)NC(=O)[C@H](CC(C)C)NC(=O)c1ccc2c(c1)nc(Cc1cccs1)n2C(CC)CC [Example 226, 1-(1-Ethyl-propyl)-2-thiophen-2-ylmethyl-1H-benzoimidazole-5-carboxylic acid [(S)-1-(1-ethyl-propylcarbamoyl)-3-methyl-butyl]-amide] | 4870
13 | CCC(CC)n1c(Cc2cccs2)nc2cc(C(=O)N[C@@H](CC(C)C)C(=O)NCCCN3CCN(C)CC3)ccc21 [Example 227, 1-(1-Ethyl-propyl)-2-thiophen-2-ylmethyl-1H-benzoimidazole-5-carboxylic acid {(S)-3-methyl-1-[3-(4-methyl-piperazin-1-yl)-propylcarbamoyl]-butyl}-amide] | 287
14 | CCC(CC)n1c(Cc2cccs2)nc2cc(C(=O)N[C@@H](CC(C)C)C(=O)Nc3ccc(F)cc3)ccc21 [Example 228, 1-(1-Ethyl-propyl)-2-thiophen-2-ylmethyl-1H-benzoimidazole-5-carboxylic acid [(S)-1-(4-fluoro-phenylcarbamoyl)-3-methyl-butyl]-amide] | 8500
15 | CCC(CC)n1c(Cc2cccs2)nc2cc(C(=O)N[C@@H](CC(C)C)C(=O)N3CC(C)OC(C)C3)ccc21 (stereo partly drawn) [Example 229, 1-(1-Ethyl-propyl)-2-thiophen-2-ylmethyl-1H-benzoimidazole-5-carboxylic acid [(S)-1-(2,6-dimethyl-morpholine-4-carbonyl)-3-methyl-butyl]-amide] | 1940
16 | CCC(CC)n1c(Cc2cccs2)nc2cc(C(=O)N[C@@H](CC(C)C)C(=O)NCCN3CCCC3)ccc21 [Example 230, 1-(1-Ethyl-propyl)-2-thiophen-2-ylmethyl-1H-benzoimidazole-5-carboxylic acid [(S)-3-methyl-1-(2-pyrrolidin-1-yl-ethylcarbamoyl)-butyl]-amide] | 288

Second part, the compound after the results:

Row | EC50 [nM] | SMILES
17 | 525 | CCC(CC)n1c(Cc2cccs2)nc2cc(C(=O)N[C@@H](CC(C)C)C(=O)NCCN3CCOCC3)ccc21 [Example 231, 1-(1-Ethyl-propyl)-2-thiophen-2-ylmethyl-1H-benzoimidazole-5-carboxylic acid [(S)-3-methyl-1-(2-morpholin-4-yl-ethylcarbamoyl)-butyl]-amide]
18 | 2920 | CCC(CC)n1c(Cc2cccs2)nc2cc(C(=O)N[C@@H](CC(C)C)C(=O)NC(C)CC(C)C)ccc21 (stereo partly drawn) [Example 232, 1-(1-Ethyl-propyl)-2-thiophen-2-ylmethyl-1H-benzoimidazole-5-carboxylic acid [(S)-1-(1,3-dimethyl-butylcarbamoyl)-3-methyl-butyl]-amide]
19 | 394 | CCC(CC)n1c(Cc2cccs2)nc2cc(C(=O)N[C@@H](CC(C)C)C(=O)NCCN3CCCCC3)ccc21 [Example 233, 1-(1-Ethyl-propyl)-2-thiophen-2-ylmethyl-1H-benzoimidazole-5-carboxylic acid [(S)-3-methyl-1-(2-piperidin-1-yl-ethylcarbamoyl)-butyl]-amide]
20 | 344 | CCC(CC)n1c(Cc2cccs2)nc2cc(C(=O)N[C@@H](CC(C)C)C(=O)NCCCN3CCOCC3)ccc21 [Example 234, 1-(1-Ethyl-propyl)-2-thiophen-2-ylmethyl-1H-benzoimidazole-5-carboxylic acid [(S)-3-methyl-1-(3-morpholin-4-yl-propylcarbamoyl)-butyl]-amide]
21 | 1300 | CCC(CC)n1c(Cc2cccs2)nc2cc(C(=O)N[C@@H](CC(C)C)C(=O)N3CCN(c4ccccc4)CC3)ccc21 [Example 235, 1-(1-Ethyl-propyl)-2-thiophen-2-ylmethyl-1H-benzoimidazole-5-carboxylic acid [(S)-3-methyl-1-(4-phenyl-piperazine-1-carbonyl)-butyl]-amide]
22 | 3870 | CCC(CC)n1c(Cc2cccs2)nc2cc(C(=O)N[C@@H](CC(C)C)C(=O)NCc3ccc(OC)cc3)ccc21 [Example 236, 1-(1-Ethyl-propyl)-2-thiophen-2-ylmethyl-1H-benzoimidazole-5-carboxylic acid [(S)-1-(4-methoxy-benzylcarbamoyl)-3-methyl-butyl]-amide]
23 | 2480 | CCC(CC)n1c(Cc2cccs2)nc2cc(C(=O)N[C@@H](CC(C)C)C(=O)NC3CCCC3)ccc21 [Example 237, 1-(1-Ethyl-propyl)-2-thiophen-2-ylmethyl-1H-benzoimidazole-5-carboxylic acid ((S)-1-cyclopentylcarbamoyl-3-methyl-butyl)-amide]
24 | 6550 | CCC(CC)n1c(Cc2cccs2)nc2cc(C(=O)N[C@@H](CC(C)C)C(=O)NCc3ccccc3OC)ccc21 [Example 238, 1-(1-Ethyl-propyl)-2-thiophen-2-ylmethyl-1H-benzoimidazole-5-carboxylic acid [(S)-1-(2-methoxy-benzylcarbamoyl)-3-methyl-butyl]-amide]
25 | 5590 | CCC(CC)n1c(Cc2cccs2)nc2cc(C(=O)N[C@@H](CC(C)C)C(=O)NCc3ccc4c(c3)OCO4)ccc21 [Example 239, 1-(1-Ethyl-propyl)-2-thiophen-2-ylmethyl-1H-benzoimidazole-5-carboxylic acid {(S)-1-[(benzo[1,3]dioxol-5-ylmethyl)-carbamoyl]-3-methyl-butyl}-amide]
26 | 614 | CCC(CC)n1c(Cc2cccs2)nc2cc(C(=O)N[C@@H](CC(C)C)C(=O)N(C)CCc3ccccn3)ccc21 [Example 240, 1-(1-Ethyl-propyl)-2-thiophen-2-ylmethyl-1H-benzoimidazole-5-carboxylic acid {(S)-3-methyl-1-[methyl-(2-pyridin-2-yl-ethyl)-carbamoyl]-butyl}-amide]
